pIC50: −log10 of the molar value.
Each molecule was assayed against T1, PIP4K2A (Homo sapiens, UniProt P48426) (assay: Kinase Assay PIP4K2 A (Table 2)). Settings: compounds listed under IC50 bins.
T1 sequence (P48426 1-406): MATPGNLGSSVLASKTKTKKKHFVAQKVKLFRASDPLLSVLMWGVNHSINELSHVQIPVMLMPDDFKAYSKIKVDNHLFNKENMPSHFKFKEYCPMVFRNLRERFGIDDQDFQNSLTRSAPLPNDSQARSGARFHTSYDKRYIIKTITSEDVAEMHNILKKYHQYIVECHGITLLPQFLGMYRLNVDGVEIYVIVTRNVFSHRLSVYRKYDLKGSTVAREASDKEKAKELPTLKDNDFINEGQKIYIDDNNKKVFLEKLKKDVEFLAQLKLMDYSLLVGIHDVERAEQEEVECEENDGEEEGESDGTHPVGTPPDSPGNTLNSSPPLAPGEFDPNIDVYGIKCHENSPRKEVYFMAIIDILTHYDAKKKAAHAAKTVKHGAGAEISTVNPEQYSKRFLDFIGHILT
Type: biochemical
Design: 4 nM PIP4K2A (full length protein, SignalChem); purchased SignalChem
Protocol: Dilution series of the compounds were prepared in DMSO at 100 times the final assay concentration (n1=n0/3 in 10 points). The compounds were further diluted to three times the assay concentration in assay buffer (20 mM MOPS pH 7.2, 25 mM magnesium chloride, 0.005% Tween 20). 6 μL of the diluted compounds were added to a 384 well assay plate followed by 9 μL of a mix consisting of 4 nM PIP4K2A (full length protein, SignalChem) and 100 μM PI(5)P diC8 (Tebu-Bio). Enzyme and compounds were pre-incubated at room temperature for 15 minutes.
Then 3 μL of a solution containing 60 μM ATP (Promega) in assay buffer was added to the wells containing compound and enzyme and mixing was performed by pipetting several times. The reaction was incubated at room temperature for 1 h. Then 18 μL of ADP-Glo™ Reagent (Promega) was added to stop the kinase reaction and deplete the unconsumed ATP, mixing was performed by pipetting several times. The plate was incubated at room temperature for 40 minutes before addition of 36 μL of Kinase Detection Reagent (Promega) to convert ADP to ATP and introduce luciferase and luciferin to detect ATP. The reaction was incubated at room temperature for 40 minutes before the luminescence was measured in a in a Victor 3V 1420 multilabel counter (Perkin Elmer).
Percent inhibition of the compounds as compared to dimethyl sulfoxide treated control samples was calculated. Compound concentration versus percent inhibition were fitted to generate IC50 values.

`COc1cncc(Nc2ccc(-c3ccc(C(=O)N(C)C)cc3)cn2)c1` [Example 39, 4-(6-((5-methoxypyridin-3-yl)amino)pyridin-3-yl)-N,N-dimethylbenzamide] and `CN(C)C(=O)Cc1cncc(Nc2ccc(-c3ccc(C(=O)N(C)C)cc3)cn2)c1` [Example 218, 4-(6-((5-(2-(dimethylamino)-2-oxoethyl)pyridin-3-yl)amino)pyridin-3-yl)-N,N-dimethylbenzamide] fall in the same range of pIC50: 6.00 to 7.00 for the first, 6.00 to 7.00 for the second.

First: CN(C)C(=O)c1ccc(-c2ccc(Nc3cncc(C4(C#N)CC4)c3)nc2)cc1 [Example 40, 4-(6-((5-(1-cyanocyclopropyl)pyridin-3-yl)amino)pyridin-3-yl)-N,N-dimethylbenzamide]
Second: CN(C)C(=O)c1ccc(-c2ccc(Nc3cncc(C4(C(N)=O)CC4)c3)nc2)cc1 [Example 41, 4-(6-((5-(1-carbamoylcyclopropyl)pyridin-3-yl)amino)pyridin-3-yl)-N,N-dimethylbenzamide]
The pIC50 of the first is higher: 7.00 to 8.00 for the first, 6.00 to 7.00 for the second.

`CN(C)C(=O)c1ccc(-c2ccc(Nc3cnc4ccn(S(C)(=O)=O)c4c3)nc2)cc1` [Example 42, N,N-dimethyl-4-(6-((1-(methylsulfonyl)-1H-pyrrolo[3,2-b]pyridin-6-yl)amino)pyridin-3-yl)benzamide] and `CN(C)C(=O)c1ccc(-c2ccc(Nc3cnc4c(c3)N(S(C)(=O)=O)CCO4)nc2)cc1` [Example 217, N,N-dimethyl-4-(6-((1-(methylsulfonyl)-2,3-dihydro-1H-pyrido[2,3-b][1,4]oxazin-7-yl)amino)pyridin-3-yl)bnzamide] fall in the same range of pIC50: 7.00 to 8.00 for the first, 7.00 to 8.00 for the second.

First: CC(=O)N1CCOc2ncc(Nc3ccc(-c4ccc(C(=O)N(C)C)cc4)cn3)cc21 [Example 43, 4-(6-((1-acetyl-2,3-dihydro-1H-pyrido[2,3-b][1,4]oxazin-7-yl)amino)pyridin-3-yl)-N,N-dimethylbenzamide]
Second: CN(C)C(=O)c1ccc(-c2ccc(Nc3cncc(N4CCOCC4=O)c3)nc2)cc1 [Example 47, N,N-dimethyl-4-(6-((5-(3-oxomorpholino)pyridin-3-yl)amino)pyridin-3-yl)benzamide]
The pIC50 of the first is higher: 8.00 to 9.00 for the first, 6.00 to 7.00 for the second.

First: CN(C)C(=O)c1ccc(-c2ccc(Nc3cncc(CCN4CCOCC4)c3)nc2)cc1 [Example 48, N,N-dimethyl-4-(6-((5-(2-morpholinoethyl)pyridin-3-yl)amino)pyridin-3-yl)benzamide]
Second: CN(C)C(=O)c1ccc(-c2ccc(Nc3cncc(N4CCN(C)C4=O)c3)nc2)cc1 [Example 72, N,N-dimethyl-4-(6-((5-(3-methyl-2-oxoimidazolidin-1-yl)pyridin-3-yl)amino)pyridin-3-yl)benzamide]
The pIC50 of the first is lower: 6.00 to 7.00 for the first, 7.00 to 8.00 for the second.

`CN(C)C(=O)c1ccc(-c2ccc(Nc3cncc(N(C)C(=O)C4CC4c4ccccc4)c3)nc2)cc1` (stereo not drawn) [Example 52, N,N-dimethyl-4-(6-((5-(N-methyl-2-phenylcyclopropane-1-carboxamido)pyridin-3-yl)amino)pyridin-3-yl)benzamide] and `CN(C)C(=O)c1ccc(-c2ccc(Nc3cncc(N4Cc5ccccc5C4=O)c3)nc2)cc1` [Example 53, N,N-dimethyl-4-(6-((5-(1-oxoisoindolin-2-yl)pyridin-3-yl)amino)pyridin-3-yl)benzamide] fall in the same range of pIC50: 7.00 to 8.00 for the first, 7.00 to 8.00 for the second.

First: CN(C)C(=O)c1ccc(-c2ccc(Nc3ccc(=O)n(Cc4ccccc4)c3)nc2)cc1 [Example 54, 4-(6-((1-benzyl-6-oxo-1,6-dihydropyridin-3-yl)amino)pyridin-3-yl)-N,N-dimethylbenzamide]
Second: CN(Cc1ccccc1)C(=O)c1ccc(-c2ccc(Nc3cccnc3)nc2)cc1 [Example 67, N-benzyl-N-methyl-4-(6-(pyridin-3-ylamino)pyridin-3-yl)benzamide]
The pIC50 of the first is lower: under 6.00 for the first, 6.00 to 7.00 for the second. The second is the more potent here.

Compared with `CN(C)C(=O)c1ccc(-c2ccc(Nc3cncc(CC(=O)NCc4cccnc4)c3)nc2)cc1` [Example 56, N,N-dimethyl-4-(6-((5-(2-oxo-2-((pyridin-3-ylmethyl)amino)ethyl)pyridin-3-yl)amino)pyridin-3-yl)benzamide], `CN(C)C(=O)c1ccc(-c2ccc(Nc3cncc(N4CCN(Cc5cccnc5)C4=O)c3)nc2)cc1` [Example 76, N,N-dimethyl-4-(6-((5-(2-oxo-3-(pyridin-3-ylmethyl)imidazolidin-1-yl)pyridin-3-yl)amino)pyridin-3-yl)benzamide] is higher in pIC50: 6.00 to 7.00 for the first, 8.00 to 9.00 for the second. The second is the more potent here.

Compared with `CC(C)[C@@H]1NC(=O)N(c2cncc(Nc3ccc(-c4ccc(C(=O)N(C)C)cc4)cn3)c2)C1=O` [Example 57, (S)-4-(6-((5-(4-isopropyl-2,5-dioxoimidazolidin-1-yl)pyridin-3-yl)amino)pyridin-3-yl)-N,N-dimethylbenzamide], `CN(C)C(=O)c1ccc(-c2ccc(Nc3cncc(N4CCNC4=O)c3)nc2)cc1` [Example 75, N,N-dimethyl-4-(6-((5-(2-oxoimidazolidin-1-yl)pyridin-3-yl)amino)pyridin-3-yl)benzamide] is higher in pIC50: 6.00 to 7.00 for the first, 7.00 to 8.00 for the second. The second is the more potent here.

First: CN(C)S(=O)(=O)c1ccc(-c2ccc(Nc3cccnc3)nc2)cc1 [Example 63, N,N-dimethyl-4-(6-(pyridin-3-ylamino)pyridin-3-yl)benzenesulfonamide]
Second: CC(=O)N(C)c1ccc(-c2ccc(Nc3cccnc3)nc2)cc1 [Example 64, N-methyl-N-(4-(6-(pyridin-3-ylamino)pyridin-3-yl)phenyl)acetamide]
The pIC50 of the first is higher: 6.00 to 7.00 for the first, under 6.00 for the second.

`Cn1cnnc1-c1ccc(-c2ccc(Nc3cccnc3)nc2)cc1` [Example 65, 5-(4-(4-methyl-4H-1,2,4-triazol-3-yl)phenyl)-N-(pyridin-3-yl)pyridin-2-amine] and `CCN(C)C(=O)c1ccc(-c2ccc(Nc3cccnc3)nc2)cc1` [Example 68, N-ethyl-N-methyl-4-(6-(pyridin-3-ylamino)pyridin-3-yl)benzamide] fall in the same range of pIC50: 6.00 to 7.00 for the first, 6.00 to 7.00 for the second.

Compared with `O=C(c1ccc(-c2ccc(Nc3cccnc3)nc2)cc1)N1CCCC1` [Example 66, (4-(6-(pyridin-3-ylamino)pyridin-3-yl)phenyl)(pyrrolidin-1-yl)methanone], `O=C1CCCN1c1ccc(-c2ccc(Nc3cccnc3)nc2)cc1` [Example 82, 1-(4-(6-(pyridin-3-ylamino)pyridin-3-yl)phenyl)pyrrolidin-2-one] is higher in pIC50: under 6.00 for the first, 6.00 to 7.00 for the second. The second is the more potent here.

First: CN(Cc1ccco1)C(=O)c1ccc(-c2ccc(Nc3cccnc3)nc2)cc1 [Example 69, N-(furan-2-ylmethyl)-N-methyl-4-(6-(pyridin-3-ylamino)pyridin-3-yl)benzamide]
Second: CN(Cc1cccnc1)C(=O)c1ccc(-c2ccc(Nc3cccnc3)nc2)cc1 [Example 70, N-methyl-4-(6-(pyridin-3-ylamino)pyridin-3-yl)-N-(pyridin-3-ylmethyl)benzamide]
The pIC50 of the first is higher: 6.00 to 7.00 for the first, under 6.00 for the second. The first is the more potent here.

`COc1ccc(CN2CCN(c3cncc(Nc4ccc(-c5ccc(C(=O)N(C)C)cc5)cn4)c3)C2=O)cc1` [Example 74, 4-(6-((5-(3-(4-methoxybenzyl)-2-oxoimidazolidin-1-yl)pyridin-3-yl)amino)pyridin-3-yl)-N,N-dimethylbenzamide] and `CN(C)C(=O)c1ccc(-c2ccc(Nc3cncc(N4CCN(Cc5cscn5)C4=O)c3)nc2)cc1` [Example 78, N,N-dimethyl-4-(6-((5-(2-oxo-3-(thiazol-4-ylmethyl)imidazolidin-1-yl)pyridin-3-yl)amino)pyridin-3-yl)benzamide] fall in the same range of pIC50: 8.00 to 9.00 for the first, 8.00 to 9.00 for the second.

`CN(C)C(=O)c1ccc(-c2ccc(Nc3cncc(N4CCN(CC5CCCO5)C4=O)c3)nc2)cc1` (stereo not drawn) [Example 77, N,N-dimethyl-4-(6-((5-(2-oxo-3-((tetrahydrofuran-2-yl)methyl)imidazolidin-1-yl)pyridin-3-yl)amino)pyridin-3-yl)benzamide] and `CN(C)C(=O)c1ccc(-c2ccc(Nc3cncc(N4CCN(CC5CC5)C4=O)c3)nc2)cc1` [Example 79, 4-(6-((5-(3-(cyclopropylmethyl)-2-oxoimidazolidin-1-yl)pyridin-3-yl)amino)pyridin-3-yl)-N,N-dimethylbenzamide] fall in the same range of pIC50: 7.00 to 8.00 for the first, 7.00 to 8.00 for the second.

`CNC(=O)c1ccc(-c2ccc(Nc3cncc(N4CCCC4=O)c3)nc2)cc1` [Example 219, N-methyl-4-(6-((5-(2-oxopyrrolidin-1-yl)pyridin-3-yl)amino)pyridin-3-yl)benzamide] and `CN(C)C(=O)c1ccc(-c2ccc(Nc3cc[nH]c(=O)c3)nc2)cc1` [Example 221, N,N-dimethyl-4-(6-((2-oxo-1,2-dihydropyridin-4-yl)amino)pyridin-3-yl)benzamide] cannot be ordered by pIC50: under 6.00 for the first, under 6.00 for the second.

`CC(=O)Nc1ccc(-c2ccc(C(=O)N(C)C)cc2)cn1` [Example 220, 4-(6-acetamidopyridin-3-yl)-N,N-dimethylbenzamide] was tested, and the pIC50 was under 6.00.
